SMILES strings stand for the structures. “Also recorded” adds a separate entry of the source. Like-named read-outs stand apart in the source and are kept apart here.

In one data set the test system is mice. As to the kind of experiment: Protection against hypobaric hypoxia in mice (survival time). In kind it is in vivo. On the procedure: The apparatus used consisted of two chambers A and B connected by a three-way valve. […] The air in chamber A was evacuated to a pressure of 100 mm Hg. The three way valve was turned to disconnect chamber B from room air and to connect it to chamber A. At this point, the pressure in B fell to 200 mm Hg. Survival of residing mice was determined up to a maximum exposure of 15 minutes, and is defined as the time between onset of hypoxia to cessation of respiration.

Data set [1] has as its system guinea-pig ileal preparation. As to the kind of experiment: Decrease of contractile response to intramural electric stimulation in the guinea-pig ileal preparation. Conditions: Cavia porcellus. On the procedure:
A 2 cm-long section of the distal ileum freshly dissected from a CO2-asphyxiated guinea pig is cleaned from adhering tissue and mounted in an organ bath (5 mL) containing Krebs solution constantly aerated with oxygen containing 5% CO2. The initial tension is adjusted at 5 g per strip. Tension is monitored isometrically with a Grass FTC3 force transducer. Intramural electric stimulation is delivered through a platinum electrode from a Grass stimulator model s88, s44 at supramaximal voltage (V) and a frequency of 0.1/s. The preparation develops a rhythmic contractile response at maximal amplitude which is stable over time. Addition of test drugs to the organ bath causes a dose-dependent decrease in contraction amplitude which is stable over 5-8 minutes. The relative decrease in contractile response indicates the relative potency of a given agent in a series.
Blocking or decreasing neural excitability evoked by programmed electric stimulation is another indicator of a compound's potential neuroprotective activity. A convenient test system uses the guinea-pig ileal preparation mounted in an organ bath (see, for example, Eiichi Hayashi et al., European J. Pharmacol 48, 297-307, 1978).

The subject of a further data set is Male ICR mice. As to the kind of experiment: Protection against maximal electroshock-induced seizure in mice (MES). In kind it is in vivo. Conditions: for protected/total: electroshock 30 min after medication; for ED50: Mus musculus, median effective dose, maximal electroshock, mice, ip, read-out: ED50 (95% confidence limits). As for the experimental part: Male ICR mice were used. The rodent shocker apparatus consisted of a shock stimulator Type 221 (Hugo Sachs Elektronik, Germany) with a current setting for mice. Thirty minutes after medication with a given agent, given intraperitoneally as a fine slurry in methyl cellulose 0.5% in distilled water, each mouse received an electroshock of 50 mA for 0.2 seconds, applied to the eye, at a maximum of 250 V/300 mA. The ratio of mice protected against seizure in a group of four per dose was determined and used as an indicator of neuroprotective activity.
Protection of mice against seizures induced by electroshock is a widely used model to probe for potential anti-epileptic agents (see, for example, Y. I. Sohn et al., Anticonvulsant properties of diphenylthiohydantoin, Arch. Int. Pharmacodyn. 188, 284-289, 1970).

Data set [2] concerns guinea-pig ileal preparation. As to the kind of experiment: Decrease in contractile response of guinea-pig ileum evoked by the nicotinic agonist DMPP. Details: Emax: dose or concentration left out as unconfirmed. As for the experimental part:
A strip of guinea-pig ileum is mounted in an organ bath, as described in EXAMPLE 10. 1-N,N-dimethyl-4-N-phenylpiperazinium chloride (DMPP) is added at intervals of about 15 minutes in order of increasing dose, to cause bath concentrations in the range of 0.1-10 uM. A brief contraction follows each addition. The amplitude of the contractile response is used to derive a dose-response relationship for DMPP. Usually, a bath concentration of 1 uM DMPP will give 90-100% of the maximal response obtainable in the given preparation. One of two procedures follows this: A dose-response of a test compound is determined in the presence of a fixed concentration of DMPP. This is done by incubating the preparation with a given concentration of the test compound, then challenging it with DMPP at a dose to give 1 uM bath concentration. The procedure is repeated with the next higher concentration of the test compound. In the other procedure, the dose-response of DMPP is determined in the presence of a fixed bath concentration of the test compound, usually 200 uM.
When intramural nerve stimulation occurs, as in the case of electrical stimulation, the contractile effector substance is released from nerve endings by a depolarization wave that propagates along the parasympathetic nerve fiber until its junction with smooth muscle of the ileum. An alternative but not equivalent procedure is stimulation of parasympathetic ganglia by an appropriate nicotinic agonist such as 1-N,N-dimethyl-4-N-phenylpiperazinium chloride (DMPP). Stimulation of parasympathetic ganglia causes a depolarization wave in the post-ganglionic nerve fiber which terminates on the smooth muscle of the ileum, causing release of contractile effector and contraction (see, for example, E. S. Vizi, Acetylcholine release from guinea-pig ileum by parasympathetic ganglion stimulants and gastrin-like polypeptides, Br. J. Pharmacol. 47, 765-77. 1973).

Data set [3] deals with guinea-pig ileal preparation. As to the kind of experiment: Potentiation of adenosine depression of contractile response, procedure I (in the presence of test compound). The following applies: drug present. As for the experimental part: (§1) The test system used is the intramural electrically-stimulated guinea-pig ileal preparation as described in EXAMPLE 10. Adenosine added to the organ bath in rising concentrations in the range 0.1-10 uM causes a dose-dependent decrease in contraction amplitude, with an EC50 of about 1 uM.
In procedure I, the effect of a given concentration of adenosine, usually, 0.2 or 0.4 uM was first determined and related to the full contractile response in the absence of adenosine. […] The amplitude of the contractile response was recorded. Now, adenosine was added at the same dose initially used, and the effect of adenosine in the presence of the test compound was recorded.
(§2) The calculated effect is the product of the responses to each of the two agents when applied separately. The potentiation ratio is defined as (100%found)/(100-% calculated).

The test system of data set [4] is guinea-pig ileal preparation. As to the kind of experiment: Potentiation of adenosine depression of contractile response, procedure II (after exposure to and washout of test compound). The following applies: adenosine 0.4 uM, after exposure and washout, 5, 50-400, 6, 50-400; for Mean potentiation ratio ± SEM: drug conc. (uM): 3, 100-400, 2a, 1000, 2, 1000. As for the experimental part: as §1, §2
In all cases, the difference between the calculated and observed response was statistically significant. […] In procedure II, the dose response to adenosine was determined before and after exposure of the preparation to the test drug and washout of the test drug from the organ bath. In this case, significant potentiation of adenosine was observed even though the test drug had been washed out from the organ bath. In fact, the potentiation ratio, as defined earlier, was even higher than found in the presence of the test compounds (Procedure I), reaching very high values.

Where [5] appears, read: Mus musculus, 50 mg/kg, ip, mice, 200 mm Hg, read-out: survival ± SD (survival time as percent of vehicle control).
The mark [6] stands for this setting: Mus musculus, ip, mice, 200 mm Hg, read-out: survival ± SD (survival time as percent of vehicle control).
Setting [7] is: calculated from logit plot, contractile response to intramural electric stimulation, read-out: EC50.
Where [8] appears, read: Mus musculus, ip, read-out: survival ± SD (survival time as percent of vehicle control).
Where [9] appears, read: adenosine 0.4 uM, drug conc. range (uM): 3, 20-400, 5, 50-200, 6, 25-50.
Where [10] appears, read: drug conc. range (uM): 3, 100-400.
The mark [11] stands for this setting: Mus musculus, 12.5 mg/kg, ip, mice, 200 mm Hg, read-out: survival ± SD (survival time as percent of vehicle control).
Setting [12] is: Mus musculus, 25 mg/kg, ip, mice, 200 mm Hg, read-out: survival ± SD (survival time as percent of vehicle control).
Where [13] appears, read: dose of 25 mg/kg, listed in decreasing order of activity.
[14] abbreviates: adenosine 0.1 uM, drug conc. range 40-400 uM.
The mark [15] stands for this setting: adenosine 0.2 uM, drug conc. range 40-400 uM.

Regarding `CC(=O)NC1CCc2cc(Cl)ccc21` (centres unmarked) [Compound 13, reference compound], in the data set on mice (setting [5]), the response vs control in vivo at 50 mg/kg is 148 ± 77%. Further, the response vs control in vivo at 100 mg/kg with mice (setting [6]) was 267 ± 151%.

Consider `CC(=O)NC1=CCCc2ccccc21` [Compound 4, N-Acetyl-4-amino-1,2-dihydronaphthalene], for which the EC50 in data set [1] (setting [7]) was 752 µM; in data set [2] (Cavia porcellus), 193 µM. In addition, the protected/total in the data set on Male ICR mice (75 mg/kg intraperitoneally) was 0/4; in the data set on Male ICR mice (100 mg/kg intraperitoneally), 3/4. The ED50 with Male ICR mice came to 92.3 mg/kg. Moreover, in the data set on mice (setting [8]), the response vs control in vivo at 25 mg/kg is 156 ± 24%. Also, the “activity in the hypobaric hypoxia model (in words)” value (shortened to “activity”) with mice (dose not given) was “inactive”.

Consider `CC(=O)NC1=CCc2ccccc21` [Compound 3, N-Acetyl-3-amino-1H-indene], for which the EC50 is 251 µM in data set [1] (setting [7]) and 170 µM in data set [2] (Cavia porcellus, calculated from logit plot, inhibiting contractile response to 1 uM DMPP, read-out: EC50). Besides, the figures for the protected/total in the data set with Male ICR mice (100 mg/kg intraperitoneally), in the data set on Male ICR mice (125 mg/kg intraperitoneally) and with Male ICR mice (150 mg/kg intraperitoneally) were 1/4, 2/4 and 4/4, respectively. For the same compound, in the data set with Male ICR mice, the 50% effective dose (ED50) is 116 mg/kg. Further, the “Mean potentiation ratio ± SEM” value came to 1.49 ± 0.075 in data set [3] (setting [9]) and 1.54 ± 0.25 in data set [4]. Also, the “potentiation ratio, Max” value in data set [3] (setting [9]) is 1.74; in data set [4] (setting [10]), 1.99. Besides, the “potentiation ratio, Min” value was 1.29 in data set [3] (setting [9]) and 1.14 in data set [4] (setting [10]). Further, in data set [2] (test compound at 200 uM fixed bath concentration, FIG. 8), the “reversibility of the depression by rising concentrations of DMPP” value is listed as “not reversible; also recorded: irreversibly blocked”. The “protection over 2a (control)” value in the data set on mice (50 mg/kg, mice) is recorded as 1000%. For the same compound, the side effects result with mice (50 mg/kg, mice) is “minor and transient side effects such as slight sedation, hypopnea and defecation”. Further, the response vs control in vivo at 12.5 mg/kg in the data set with mice (setting [11]) turned out to be 637 ± 341%. Also, in the data set with mice (setting [12]), the response vs control in vivo at 25 mg/kg was determined as 735 ± 238%. Also, the response vs control in vivo at 50 mg/kg in the data set with mice (setting [5]) was determined as 879 ± 237%. The response vs control in vivo at 100 mg/kg with mice (setting [6]) came out at 703 ± 242%. For the same compound, the “activity” value in the data set on mice (setting [13]) is given as “strong activity”.

With `CCCC(C)C1(CC)C(=O)N=C([O-])NC1=O.[Na+]` (centres unmarked) [Nembutal, reference compound], the “survival ± SD (survival time as percent of vehicle control)” value in the data set on mice (40 mg/kg, ip, mice, 200 mm Hg) is recorded as 253 ± 200% of vehicle control.

For `CCCC(CCC)C(=O)[O-].[Na+]` [Sodium valproate, sodium valproate, reference compound], the protected/total is 1/8 with Male ICR mice (280 mg/kg); 2/8 in the data set with Male ICR mice (310 mg/kg); 4/8 with Male ICR mice (340 mg/kg); 6/8 in the data set with Male ICR mice (400 mg/kg); 8/8 in the data set with Male ICR mice (600 mg/kg). For the same compound, the ED50 in the data set on Male ICR mice worked out at 350 mg/kg.

In the case of `COC(=O)NC1=CCc2ccccc21` [Compound 8, N-Methoxycarbonyl-3-amino-1H-indene], in the data set with mice (setting [8]), the response vs control in vivo at 12.5 mg/kg stood at 195 ± 90%, the response vs control in vivo at 25 mg/kg is 402 ± 348% and the response vs control in vivo at 50 mg/kg was found to be 547 ± 327%. Also, the “activity” value in the data set on mice (setting [13]) was “strong activity”.

As to `C[N+]1(C)CCN(c2ccccc2)CC1` [DMPP, 1-N,N-dimethyl-4-N-phenylpiperazinium chloride, reference compound], the Emax in data set [2] (Cavia porcellus, read-out: contractile response as % of the maximal response obtainable) was in the range of 90 to 100%.

On to `CN1C(=O)CN=C(c2ccccc2)c2cc(Cl)ccc21` [Diazepam, diazepam, reference compound], for which, in the data set on mice (setting [8]), the response vs control in vivo at 10 mg/kg amounted to 316 ± 78%.

For the compound `Nc1ncnc2c1ncn2[C@@H]1O[C@H](CO)[C@@H](O)[C@H]1O` [Adenosine, adenosine, reference compound], the concentration giving a half-maximal response (EC50) in data set [1] (adenosine added in rising concentrations 0.1-10 uM, electrically-stimulated ileal preparation, read-out: EC50 of decrease in contraction amplitude) is around 1 µM.

Take `CC(=O)NC1CCc2ccccc21` (centres unmarked) [Compound 2, N-acetyl-1-aminoindan, reference compound]: in data set [1] (setting [7]), the concentration giving a half-maximal response (EC50) is 1840 µM. In data set [3] (setting [14]), the “Mean potentiation ratio ± SEM” value came to 1.35 ± 0.07; the “potentiation ratio, Max” value amounted to 1.49; the “potentiation ratio, Min” value was determined as 1.16. In addition, in data set [3] (setting [15]), the “Mean potentiation ratio ± SEM” value amounted to 1.24 ± 0.16; the “potentiation ratio, Max” value amounted to 1.51; the “potentiation ratio, Min” value is listed as 0.79. Besides, the “Mean potentiation ratio ± SEM” value in data set [4] stood at 0.87. Further, the response vs control in vivo at 100 mg/kg with mice (setting [6]) amounted to 200%.

In the case of `O=CNC1=CCc2cc(Cl)ccc21` [Compound 7, N-formyl-6-chloro-3-amino-1H-indene], in the data set with mice (setting [11]), the response vs control in vivo at 12.5 mg/kg turned out to be 357 ± 299%. Besides, the response vs control in vivo at 25 mg/kg in the data set with mice (setting [12]) worked out at 467 ± 239%. Also, in the data set on mice (setting [5]), the response vs control in vivo at 50 mg/kg was 893 ± 433%. Besides, the “activity” value with mice (setting [13]) was “strong activity”.

Source of the values: patent US6737547B1, “Compositions containing and methods of using N-acyl-1H-aminoindenes” (Teva Pharmaceutical Industries, Ltd., priority 1998, dated 2004).
